Results from patent US20260226048A1, “MULTI-CYCLIC IRAK AND FLT3 INHIBITING COMPOUNDS AND USES THEREOF” (CHILDREN'S HOSPITAL MEDICAL CENTER, priority 2023, published 2026).
pIC50: −log10 of the molar value. Like-named read-outs stand apart in the source and are kept apart here.

What was measured:
MOLM14 F691L cells = experiment: MOLM14 F691L cell viability assay (Cell Titer Glo); type: cell-based; settings: Homo sapiens, MOLM-14; cell viability, Cell Titer Glo, 48 hours; read-out: MOLM14 F691L IC50
Experimental: (§1) Both cell lines have activated FLT3 receptors, each of which carry additional resistance mutations in the kinase domain (D835Y and F691L, respectively).
(§2) For viability/cytotoxicity assessments, cells were seeded into 1536-well white polystyrene tissue culture-treated Greiner plates using a Multidrop Combi dispenser (ThermoFisher), in final volume 5 μL of growth media per well, at a density of 1000 cells per well. […] Plates were incubated for 48 hours at standard incubator conditions covered by a stainless steel gasketed lid to prevent evaporation. 48 hours post compound addition, 3 μL of Cell Titer Glo (Promega) were added to each well and plates were incubated at room temperature for 15 minutes with the stainless-steel lid in place. Luminescence readings were taken using a Viewlux imager (PerkinElmer) with a 2 second exposure time per plate.

IRAK1 = biological target: T1, IRAK1 (Homo sapiens, UniProt P51617); experiment: RBC HotSpot Kinase Assay, IRAK1; type: biochemical; settings: isolated kinase enzyme, 33P-ATP, P81 filter-binding
T1 construct: purchased Reaction Biology (RBC HotSpot)
Text: (§3) This assay uses the isolated kinase enzyme. […] Unlike kinase binding assays that measure competition for ATP, the HotSpot Kinase Assay is a functional assay that measures catalytic activity; as such it measures relative functional potency regardless of the mechanism of enzyme inhibition. This assay uses the form of the various enzymes that are easiest to express, which may not necessarily be the form of the enzyme that exist in the cell. (Sometimes the carboxy terminus has been truncated to aid in expression, or, if it is a receptor kinase, the enzyme itself is isolated from the other parts of the receptor that are involved in regulating kinase activity.)
(§4) The reagent used was as follows: Base Reaction buffer; 20 mM Hepes (pH 7.5), 10 mM MgCl2, 1 mM EGTA, 0.01% Brij35, 0.02 mg/ml BSA, 0.1 mM Na3VO4, 2 mM DTT, 1% DMSO. Required cofactors were added individually to each kinase reaction.

MOLM14 D835Y cells = experiment: MOLM14 D835Y cell viability assay (Cell Titer Glo); type: cell-based; settings: cell viability, Cell Titer Glo, 48 hours, read-out: MOLM14 D835Y IC50
Experimental: as §1, §2

FLT3 = biological target: T2, FLT3 (Homo sapiens, UniProt P36888); experiment: RBC HotSpot Kinase Assay, FLT3; type: biochemical; design: purchased Reaction Biology (RBC HotSpot); settings: isolated kinase enzyme, 33P-ATP, P81 filter-binding
T2 sequence (P36888 27-993): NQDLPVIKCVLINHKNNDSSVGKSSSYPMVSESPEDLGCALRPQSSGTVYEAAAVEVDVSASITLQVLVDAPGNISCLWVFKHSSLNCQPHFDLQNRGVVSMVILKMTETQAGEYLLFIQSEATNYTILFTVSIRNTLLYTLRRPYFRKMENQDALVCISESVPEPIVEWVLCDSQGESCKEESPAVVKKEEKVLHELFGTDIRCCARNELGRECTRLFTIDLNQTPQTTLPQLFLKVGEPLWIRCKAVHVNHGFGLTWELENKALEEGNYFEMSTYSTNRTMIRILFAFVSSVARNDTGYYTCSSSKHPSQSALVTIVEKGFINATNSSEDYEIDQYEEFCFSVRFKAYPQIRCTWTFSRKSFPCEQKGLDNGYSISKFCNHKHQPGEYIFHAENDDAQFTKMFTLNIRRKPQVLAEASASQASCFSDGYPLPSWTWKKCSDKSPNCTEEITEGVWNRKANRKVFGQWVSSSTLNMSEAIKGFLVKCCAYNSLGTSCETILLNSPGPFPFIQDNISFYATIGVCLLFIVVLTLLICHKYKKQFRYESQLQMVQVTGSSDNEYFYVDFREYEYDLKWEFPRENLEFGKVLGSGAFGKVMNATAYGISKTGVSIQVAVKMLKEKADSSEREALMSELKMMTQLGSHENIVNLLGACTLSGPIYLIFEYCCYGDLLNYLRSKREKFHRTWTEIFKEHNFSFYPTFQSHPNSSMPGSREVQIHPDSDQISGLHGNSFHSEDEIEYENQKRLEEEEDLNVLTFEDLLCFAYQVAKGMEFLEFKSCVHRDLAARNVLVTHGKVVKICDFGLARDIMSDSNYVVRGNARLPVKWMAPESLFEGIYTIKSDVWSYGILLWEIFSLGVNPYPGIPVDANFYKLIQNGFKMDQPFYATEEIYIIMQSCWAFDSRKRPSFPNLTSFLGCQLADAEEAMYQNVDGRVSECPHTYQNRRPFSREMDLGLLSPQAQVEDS
Text: as §3, §4

IRAK4 = biological target: T3, IRAK4 (Homo sapiens, UniProt Q9NWZ3); experiment: RBC HotSpot Kinase Assay, IRAK4; type: biochemical; design: purchased Reaction Biology (RBC HotSpot); settings: isolated kinase enzyme, 33P-ATP, P81 filter-binding
T3 sequence (Q9NWZ3 1-460): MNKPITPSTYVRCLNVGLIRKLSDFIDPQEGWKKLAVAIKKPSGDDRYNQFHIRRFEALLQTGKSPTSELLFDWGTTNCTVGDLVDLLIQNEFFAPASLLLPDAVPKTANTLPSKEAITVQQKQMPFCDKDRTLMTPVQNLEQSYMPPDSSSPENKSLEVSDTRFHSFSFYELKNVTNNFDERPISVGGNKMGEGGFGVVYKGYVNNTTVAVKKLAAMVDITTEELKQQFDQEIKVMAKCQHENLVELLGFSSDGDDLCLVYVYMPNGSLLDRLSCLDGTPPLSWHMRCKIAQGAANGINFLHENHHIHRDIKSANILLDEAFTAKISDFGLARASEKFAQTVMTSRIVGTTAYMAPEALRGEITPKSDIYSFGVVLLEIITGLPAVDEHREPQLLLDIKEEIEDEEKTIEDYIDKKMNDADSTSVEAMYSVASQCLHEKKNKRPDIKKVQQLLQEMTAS
Text: as §3, with “enzyme. This assay is very useful for determining competition of the inhibitor for ATP and/or substrates and for measuring the kinetics of enzyme inhibition.” for “enzyme.”
as §4
The reaction procedure was as follows: • 1) Substrates were prepared in freshly prepared Reaction Buffer. • 2) Any required cofactors were delivered to the substrate solution above. • 3) Kinase was delivered into the substrate solution and gently mixed. • 4) Compounds were delivered in 1000A DM into the kinase reaction mixture by Acoustic technology (Echo550; nanoliter range), followed by incubation for 20 min at room temp. • 5) 33P-ATP was delivered into the reaction mixture to initiate the reaction. • 6) The mixture was incubated for 2 hours at room temperature. • 7) Kinase activity was detected by P81 filter-binding method.

T1 sequence (P51617 whole entry): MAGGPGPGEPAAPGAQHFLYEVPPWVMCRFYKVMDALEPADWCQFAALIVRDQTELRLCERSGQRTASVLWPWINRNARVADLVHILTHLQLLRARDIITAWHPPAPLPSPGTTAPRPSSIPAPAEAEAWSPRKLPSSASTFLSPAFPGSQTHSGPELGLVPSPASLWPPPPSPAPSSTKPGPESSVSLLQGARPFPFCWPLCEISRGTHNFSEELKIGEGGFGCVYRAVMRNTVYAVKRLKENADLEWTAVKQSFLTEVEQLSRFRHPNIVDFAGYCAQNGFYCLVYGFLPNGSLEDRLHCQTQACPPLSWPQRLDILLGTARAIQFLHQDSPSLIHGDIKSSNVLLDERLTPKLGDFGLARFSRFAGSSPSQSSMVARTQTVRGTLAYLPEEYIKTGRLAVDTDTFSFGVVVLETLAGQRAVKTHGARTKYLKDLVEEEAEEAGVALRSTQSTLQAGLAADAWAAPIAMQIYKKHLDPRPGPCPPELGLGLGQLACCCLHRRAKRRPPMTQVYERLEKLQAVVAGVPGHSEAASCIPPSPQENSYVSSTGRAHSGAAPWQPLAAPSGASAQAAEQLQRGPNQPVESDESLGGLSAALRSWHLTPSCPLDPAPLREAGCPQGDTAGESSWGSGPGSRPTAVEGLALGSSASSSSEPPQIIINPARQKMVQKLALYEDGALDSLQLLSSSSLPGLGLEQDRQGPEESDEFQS

Row | Compound | pIC50 (MOLM14 F691L cells) | pIC50 (IRAK1) | pIC50 (MOLM14 D835Y cells; Homo sapiens, MOLM-14, 48 h) | pIC50 (FLT3) | pIC50 (IRAK4) | pIC50 (MOLM14 D835Y cells)
1 | COc1cc2ncc(-c3ccnc(N[C@H]4CNC[C@@H]4F)n3)n2nc1C1CCC1 [Compound 77a, 4-(6-cyclobutyl-7-methoxyimidazo[1,2-b]pyridazin-3-yl)-N-((3S,4S)-4-fluoropyrrolidin-3-yl)pyrimidin-2-amine] | 6.85 | 7.92 | 7.80 | > 9.30 | 9.00 | –
2 | COc1cc2ncc(-c3nc(N[C@H]4CNC[C@@H]4F)ncc3F)n2nc1C1CC2(CCC2)C1 [Compound 58a, 5-fluoro-N-((3S,4S)-4-fluoropyrrolidin-3-yl)-4-(7-methoxy-6-(spiro[3.3]heptan-2-yl)imidazo[1,2-b]pyridazin-3-yl)pyrimidin-2-amine] | 6.90 | 8.15 | 7.85 | > 9.30 | 8.30 | –
3 | COc1cc2ncc(-c3ccnc(N[C@@H]4CCCNC4)n3)n2nc1C12CC(C1)C2 [Compound 90a, (R)-4-(6-(bicyclo[1.1.1]pentan-1-yl)-7-methoxyimidazo[1,2-b]pyridazin-3-yl)-N-(piperidin-3-yl)pyrimidin-2-amine] | 6.35 | 7.07 | 7.30 | > 9.30 | 8.05 | –
4 | COc1cc2ncc(-c3ccnc(N[C@H]4CNCC[C@@H]4F)n3)n2nc1[C@H]1C[C@@H](O)C1 [Compound 127a, (Cis)-3-(3-(2-(((3S,4S)-4-fluoropiperidin-3-yl)amino)pyrimidin-4-yl)-7-methoxyimidazo[1,2-b]pyridazin-6-yl)cyclobutan-1-ol] | 6.95 | 7.70 | 8.10 | > 9.30 | > 9.30 | –
5 | CC(C)(O)c1cn2c(-c3nc(N[C@@H]4CCCNC4)ncc3F)cnc2cn1 [Compound 99a, (R)-2-(3-(5-fluoro-2-(piperidin-3-ylamino)pyrimidin-4-yl)imidazo[1,2-a]pyrazin-6-yl)propan-2-ol] | 5.85 | 7.36 | 6.85 | 8.52 | 7.96 | –
6 | COc1cc2ncc(-c3nc(N[C@H]4CNC[C@@H]4F)ncc3F)n2nc1N1CCCC1=O [Compound 107a, 1-(3-(5-fluoro-2-(((3S,4S)-4-fluoropyrrolidin-3-yl)amino)pyrimidin-4-yl)-7-methoxyimidazo[1,2-b]pyridazin-6-yl)pyrrolidin-2-one] | 5.95 | 6.99 | 7.10 | 9.22 | 7.70 | –
7 | COc1cc2ncc(-c3nc(N[C@H]4CNC[C@@H]4F)ncc3F)n2nc1C1CCCC1 [Compound 61a, 4-(6-cyclopentyl-7-methoxyimidazo[1,2-b]pyridazin-3-yl)-5-fluoro-N-((3S,4S)-4-fluoropyrrolidin-3-yl)pyrimidin-2-amine] | 7.55 | > 9.30 | 8.52 | > 9.30 | > 9.30 | –
8 | COc1cc2ncc(-c3ccnc(N[C@H]4CNCC[C@@H]4F)n3)n2nc1C1CCCCC1 [Compound 88a, 4-(6-cyclohexyl-7-methoxyimidazo[1,2-b]pyridazin-3-yl)-N-((3S,4S)-4-fluoropiperidin-3-yl)pyrimidin-2-amine] | 6.75 | 7.89 | 7.60 | > 9.30 | 8.40 | –
9 | Fc1cnc(N[C@@H]2CCCNC2)nc1-c1cnc2cnc(C3COC3)cn12 [Compound 118a, (R)-5-fluoro-4-(6-(oxetan-3-yl)imidazo[1,2-a]pyrazin-3-yl)-N-(piperidin-3-yl)pyrimidin-2-amine] | 5.50 | 6.14 | 6.75 | 8.15 | 6.81 | –
10 | COc1cc2ncc(-c3nc(N[C@@H]4CCCNC4)ncc3F)n2nc1C1CC(C)(C)C1 [Compound 56a, (R)-4-(6-(3,3-dimethylcyclobutyl)-7-methoxyimidazo[1,2-b]pyridazin-3-yl)-5-fluoro-N-(piperidin-3-yl)pyrimidin-2-amine] | 7.15 | 9.15 | 8.10 | > 9.30 | 8.70 | –
11 | COc1cc2ncc(-c3cncc(N[C@H]4CNC[C@@H]4F)n3)n2nc1C1CC(F)(F)C1 [Compound 71a, 6-(6-(3,3-difluorocyclobutyl)-7-methoxyimidazo[1,2-b]pyridazin-3-yl)-N-((3S,4S)-4-fluoropyrrolidin-3-yl)pyrazin-2-amine] | – | 6.47 | 6.24 | 9.00 | 7.19 | –
12 | CC(O)(c1ccc2ncc(-c3cncc(N[C@H]4CNC[C@@H]4F)n3)n2c1)C(F)(F)F (single isomer, unassigned) [Compound 30a] | – | 6.97 | 6.24 | 8.70 | 8.30 | –
13 | COc1cc2ncc(-c3ccnc(N[C@@H]4CCCNC4)n3)n2nc1C1CC(F)(F)C1 [Compound 21a, (R)-4-(6-(3,3-difluorocyclobutyl)-7-methoxyimidazo[1,2-b]pyridazin-3-yl)-N-(piperidin-3-yl)pyrimidin-2-amine] | – | 6.63 | 6.99 | > 9.30 | 7.09 | –
14 | CC(O)(c1ccc2ncc(-c3ccnc(N[C@H]4CNC[C@@H]4F)n3)n2c1)C(F)(F)F (single isomer, unassigned) [Compound 26a] | – | 8.30 | – | > 9.30 | > 9.30 | 7.64
